Measured values published in patent US12129312B2, “Peptide compound, application thereof and composition containing same” (priority 2017, dated 2024).
Square brackets hold non-standard residues; d marks the D form. Peptide text beside a SMILES is read from it. * marks the point of attachment. Hydrocinnamoyl = O=C(CCc1ccccc1)*; Tic = O=C(O)[C@@H]1Cc2ccccc2CN1; NMeL = CN[C@@H](CC(C)C)C(=O)O

Columns and labels:
Type in all cases: in vitro ADME
[1] = Plasma stability, mouse plasma; settings: 37° C., 0-4 hours, LC-MS/MS, "Very long" = no significant degradation found in the test (4 hours)
Procedure: (§1) 1. Preparation of 50 mM Phosphate Buffer (50 mM Sodium Phosphate and 70 mM NaCl):
(§2) 5.750 g of Na2HPO4, 1.141 g of NaH2PO4 and 4.095 g of NaCl (Shanghai Titan) were weighed and dissolved in 1000 mL of ultrapure water and the pH was adjusted to 7.4. The prepared phosphate buffer was stored in the refrigerator at 4° C., valid for one week.
(§3) 2. Preparation of Compound Stock Solution:
(§4) 1) 5 mg/mL test compound: 5 mg of compound was weighed and dissolved in 1 mL of DMSO.
(§5) 2) 20 mM control: 2.728 mg of nococaine was dissolved in 0.5 mL of DMSO. 3.878 mg of fenfluramide was dissolved in 0.5 mL of DMSO (Amresco).
(§6) 3. Preparation of Experimental Plasma:
(§7) The frozen plasma (human: Shanghai ChemPartner, Rat, Mouse: Shanghai Xipuer-Beikai, Dog, Monkey: Suzhou Xishan Zhongke) was taken out from the −80° C. refrigerator, immediately placed in a 37° C. water bath, and thawn with gentle shaking. The thawed plasma was poured into a centrifuge tube, and centrifuged at 3000 rpm for 8 minutes. The supernatant was collected for the experiment. The pH of the plasma was measured with a pH meter (METTLER TOLEDO), and only the plasma with a pH between 7.4 and 8 was used for the experiment. The plasma was placed on an ice bath for later use.
(§8) 4. Preparation of the Dosing Solution:
(§9) 1) 125 μg/mL test compound solution: 5 μL of 5 mg/mL test compound (see step 2) was added to 195 μL DMSO; 500 μM control solution: 20 mM control stock solution (see step 2) was added to 195 μL DMSO.
(§10) 2) 0.5% BSA phosphate buffer solution: 0.05 g of BSA was added to 10 mL of phosphate buffer (see step 1).
(§11) 3) 5 μg/mL test compound dosing solution: 40 μL of 125 μg/mL test compound solution was added to 960 μL of 0.5% BSA phosphate buffer solution, shaken and mixed evenly, and the dosing solution was placed in a 37° C. water bath and preheated for 5 minutes.
(§12) 20 μM control dosing solution: 40 μL of 500 μM control solution was added to 960 μL of 0.5% BSA phosphate buffer solution, shaken and mixed evenly, and the dosing solution was placed in a 37° C. water bath and preheated for 5 minutes.
(§13) 5. 10 μL of 5 μg/mL test compound and 20 μM control solution were added to the wells of the 96-well plate set at different time points (0 minute, 1 hour, 2 hours and 4 hours). The number of duplicate samples was 3.
(§14) 6. 500 μL of ACN (IS) containing 5% FA was added to the wells set at 0 minute. 90 μL of plasma was then added thereto, mixed evenly, sealed with the film and stored at 4° C. (the number of duplicates was 3).
(§15) 7. 90 μL of plasma was added to the wells set at 1 hour, 2 hours and 4 hours (the number of replicates was 3), followed by timing (the final concentration of the test compound was 500 ng/mL, and that of the control was 2 μM).
(§16) 9. All samples (0 minutes, 1 hour, 2 hours, and 4 hours) at different time points on the 96-well plate were placed on a shaker (IKA, MTS 2/4) and shaken at 600 rpm for 60 minutes. The samples were then centrifuged for 15 minutes on a centrifuge machine (Thermo Multifuge×3R) at 5594×g.
(§17) 10. 150 μL of the supernatant was taken out from the centrifuged sample and sent to LC-MS/MS for analysis (conventional peptide LC-MS/MS analysis).

[2] = Plasma stability, human plasma; settings: 37° C., time points 0 minute, 1, 2 and 4 hours, LC-MS/MS, read-out: Human plasma (T1/2 (h)) (converted)
Procedure: as §1, §2, §3, §4, §5, §6, §7, §8, §9, §10, §11, §12, §13, §14, §15, §16, §17

[3] = Plasma stability, rat plasma; settings: 37° C., time points 0 minute, 1, 2 and 4 hours, LC-MS/MS, read-out: Rat plasma (T1/2 (h)) (converted)
Procedure: as §1, §2, §3, §4, §5, §6, §7
4. Preparation of the Dosing Solution: […]

Row | Mouse plasma (T1/2 (h)) ([1]; 500 ng/mL) | half-life at 500 ng/mL [2] [h] | half-life at 500 ng/mL [3] [h] | half-life at 500 ng/mL ([1]; read-out: Mouse plasma (T1/2 (h)) (converted)) [h] | SMILES
1 | Very long | 71 | > 71 | – | CC(C)C[C@@H](C(=O)N1CCC[C@H]1C(=O)N[C@H](CO)C(=O)N[C@@H](CCC(N)=O)C(=O)N[C@@H](Cc1ccccc1)C(=O)N[C@H](C)C(=O)N1Cc2ccccc2C[C@H]1C(=O)N[C@@H](CO)C(=O)O)N(C)C(=O)[C@H](Cc1ccccc1)NC(=O)[C@@H](Cc1ccc(O)cc1)NC(=O)CCc1ccccc1 [YW-111, 3-phenylpropanoyl-(D-Tyr)-Phe-(NMe-Leu)-Pro-(D-Ser)-Gln-Phe-(D-Ala)-Tic-Ser-OH] (Hydrocinnamoyl-[dY]F[NMeL]P[dS]QF[dA][Tic]S-OH)
2 | – | 12.8 | 11.7 | 35.4 | CC(C)C[C@H](NC(=O)[C@H](Cc1ccccc1)NC(=O)[C@H](N)Cc1ccc(O)cc1)C(=O)N1CCC[C@H]1C(=O)N[C@H](CO)C(=O)N[C@@H](CCC(N)=O)C(=O)N[C@@H](Cc1ccccc1)C(=O)N[C@H](C)C(=O)N1Cc2ccccc2C[C@H]1C(=O)N[C@@H](CO)C(=O)O [YW-3, (D-Tyr)-Phe-Leu-Pro-(D-Ser)-Gln-Phe-(D-Ala)-Tic-Ser, reference compound] (H-[dY]FLP[dS]QF[dA][Tic]S-OH)
